In article PMC4276551 (Journal of the renin-angiotensin-aldosterone system : JRAAS, 2014):
Each block holds one compound with its values, some of them ahead of it. Where a SMILES comes first, the peptide text is derived from it. Where no end group is shown, it is not given here. The star is where a group is joined. Cbz = O=C(OCc1ccccc1)*

Tests used:
[1] = system: Ang I to Ang-(1–7) converting peptidase activity in isolated nuclei from NRK-52E cells; experiment: Peptide metabolism: generation of Ang-; format: biochemical, rat; settings: 37°C, 125I-Ang I 0.5 nM; SCH39370 10 μM, ZPP 50 μM; HPLC with γ detector
[2] = molecular target: T1, renin (NRK-52E cell nuclei) (Rattus norvegicus, UniProt P08424); experiment: Renin activity assay in nuclear lysate of NRK-52E cells; format: biochemical; settings: basal (control) nuclear lysate, aliskiren 1 μM, 37°C, 90 min; n = 3 passages
T1 sequence (P08424 65-402): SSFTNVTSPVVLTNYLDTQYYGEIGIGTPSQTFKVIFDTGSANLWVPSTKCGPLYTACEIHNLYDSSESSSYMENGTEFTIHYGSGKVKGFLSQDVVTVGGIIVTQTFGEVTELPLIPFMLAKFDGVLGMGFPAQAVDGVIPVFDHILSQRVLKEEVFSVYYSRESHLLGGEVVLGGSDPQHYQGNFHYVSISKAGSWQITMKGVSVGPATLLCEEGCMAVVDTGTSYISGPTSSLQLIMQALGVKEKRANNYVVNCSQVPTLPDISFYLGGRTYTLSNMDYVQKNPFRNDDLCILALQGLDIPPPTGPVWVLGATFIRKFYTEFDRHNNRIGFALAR

(pro)renin receptor = settings: cited from earlier work
[3] = dose higher than the maximal recommended dose for heart failure and hypertension; without a further decline in blood pressure; cited from earlier work
[4] = pH 7.4

Compound: O=C[C@@H]1CCCN1C(=O)[C@@H]1CCCN1C(=O)OCc1ccccc1 [ZPP, Z-prolyl prolinal] (Cbz-Pro-Pro-aldehyde)
- Effect on generation of Ang-(1–7) in the nuclear extract [1]: did not block

Compound: O=C(O)C(O)CNC(=O)[C@H](Cc1ccccc1)NC(CCc1ccccc1)C(=O)O (stereo partly drawn) [SCH39370]
- Effect on generation of Ang-(1–7) in the nuclear extract [1]: did not block

- Reduction of nuclear renin activity [2]: 83%
Compound: COCCCOc1cc(C[C@@H](C[C@H](N)[C@@H](O)C[C@H](C(=O)NCC(C)(C)C(N)=O)C(C)C)C(C)C)ccc1OC [aliskiren]
- Effect on binding of (pro)renin to the receptor ((pro)renin receptor): do not block

Compound: CCOc1nc2cccc(C(=O)O)c2n1Cc1ccc(-c2ccccc2-c2nnn[nH]2)cc1 [candesartan]
- Effect on persistent proteinuria [3]: significantly reduced

- Half-life in nuclear cell extracts [4]: 1.22 h
Compound: DRVYIHPFHL [Ang I]
